Here are results for 25 molecules from PubChem BioAssay AID330 (DTP/NCI, 2004).

The structures appear in SMILES notation. “And” between values parts separate entries of the source, which are not always exact repeats. Identical values can stand only once. Inconclusive results and toxic doses are left out.

This assay has as its system P388 leukemia ip, CD2F1 mice, survival T/C. Briefly: NCI In Vivo Anticancer Drug Screen. Data for tumor model P388 Leukemia (intraperitoneal) in CD2F1 (CDF1) mice. To be noted: endpoint: median survival time, higher = longer survival. The procedure, abridged:
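Mice carrying the transplanted tumor received test compound or vehicle. Survival was recorded in each group, and the value is the treated-group measurement divided by that of the vehicle-treated control group.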

Setting [1] is: dose: 50.0 mg/kg/injection, schedule: Q01DX009 (ip), vehicle: Klucel (hydroxypropylcellulose) (HPC).
[2] abbreviates: dose: 100.0 mg/kg/injection, schedule: Q01DX009 (ip), vehicle: Klucel (hydroxypropylcellulose) (HPC).
Setting [3] is: dose: 200.0 mg/kg/injection, schedule: Q01DX009 (ip), vehicle: Klucel (hydroxypropylcellulose) (HPC).
Setting [4] is: dose: 25.0 mg/kg/injection, schedule: Q01DX009 (ip), vehicle: saline.
[5] abbreviates: dose: 50.0 mg/kg/injection, schedule: Q01DX009 (ip), vehicle: saline.
[6] abbreviates: dose: 100.0 mg/kg/injection, schedule: Q01DX009 (ip), vehicle: saline.
Setting [7] is: dose: 50.0 mg/kg/injection, schedule: Q01DX005 (ip), vehicle: saline with Tween-80.
The mark [8] stands for this setting: dose: 50.0 mg/kg/injection, schedule: Q01DX005 (ip), vehicle: saline.
The mark [9] stands for this setting: dose: 50.0 mg/kg/injection, schedule: Q01DX005 (ip), vehicle: Klucel (hydroxypropylcellulose) (HPC).
The mark [10] stands for this setting: dose: 100.0 mg/kg/injection, schedule: Q01DX005 (ip), vehicle: Klucel (hydroxypropylcellulose) (HPC).
Where [11] appears, read: dose: 200.0 mg/kg/injection, schedule: Q01DX005 (ip), vehicle: Klucel (hydroxypropylcellulose) (HPC).
[12] abbreviates: dose: 60.0 mg/kg/injection, schedule: Q01DX005 (ip), vehicle: saline with Tween-80.
[13] abbreviates: dose: 120.0 mg/kg/injection, schedule: Q01DX005 (ip), vehicle: saline with Tween-80.
[14] abbreviates: dose: 240.0 mg/kg/injection, schedule: Q01DX005 (ip), vehicle: saline with Tween-80.
Setting [15] is: dose: 200.0 mg/kg/injection, schedule: Q01DX005 (ip), vehicle: saline with Tween-80.
The mark [16] stands for this setting: dose: 100.0 mg/kg/injection, schedule: Q01DX005 (ip), vehicle: saline with Tween-80.

Take `CCCCOC(=O)NCNC(=O)OCCCC`: the T/C under setting [1] is 99 % of control, the T/C under setting [2] is 100 % of control and the T/C under setting [3] is 94 % of control.

For the molecule `CN(C)CCC(CCc1ccccc1)OC(=O)c1ccccc1` (stereo not drawn), the T/C by setting is: under setting [4], 102 % of control; under setting [5], 101 % of control; under setting [6], 102 % of control.

`CCCCN(CCCC)CC(O)c1c(OC)ccc2ccccc12` (stereo not drawn): the T/C by setting is: (dose: 12.5 mg/kg/injection, schedule: Q01DX005 (ip), vehicle: saline) 100 % of control; (dose: 25.0 mg/kg/injection, schedule: Q01DX005 (ip), vehicle: saline) 98 % of control; under setting [7], 119 % of control; under setting [8], 105 % of control.

As for `c1cc[c]([Pb]([S]c2nc3ccccc3[nH]2)([c]2ccccc2)[c]2ccccc2)cc1`, the T/C (dose: 0.37 mg/kg/injection, schedule: Q01DX009 (ip), vehicle: Klucel (hydroxypropylcellulose) (HPC)) is 102 % of control; the T/C (dose: 0.75 mg/kg/injection, schedule: Q01DX009 (ip), vehicle: Klucel (hydroxypropylcellulose) (HPC)) is 121 % of control; the T/C (dose: 1.5 mg/kg/injection, schedule: Q01DX009 (ip), vehicle: Klucel (hydroxypropylcellulose) (HPC)) is 102 % of control; the T/C (dose: 3.0 mg/kg/injection, schedule: Q01DX009 (ip), vehicle: Klucel (hydroxypropylcellulose) (HPC)) was 100 % of control.

As to `Cc1cc(=O)[nH]c(SCC(=O)c2ccccc2)n1`, the T/C reads like this: under setting [9], 102 % of control; under setting [10], 99 % of control; under setting [11], 102 % of control.

Consider `N#Cc1c(N2CCOCC2)c(-c2ccccc2)c(N2CCOCC2)n2c1nc1ccccc12`, for which the T/C under setting [12] was 90 % of control, the T/C under setting [13] was 96 % of control and the T/C under setting [14] was 87 % of control.

Regarding `NC(CP(=O)(O)O)C(=O)O` (stereo not drawn), the T/C under setting [8] was 106 % of control; the T/C (dose: 100.0 mg/kg/injection, schedule: Q01DX005 (ip), vehicle: saline) is 101 % of control; the T/C (dose: 200.0 mg/kg/injection, schedule: Q01DX005 (ip), vehicle: saline) is 91 % of control.

Take `CCOC(=O)/C(Cl)=C(\C)Nc1nc2c(ccc3ccccc32)s1`: the T/C reads like this: under setting [12], 98 % of control; under setting [13], 90 % of control.

As to `COc1ccc(N=Cc2c(O)ccc3c2oc2cc(Cl)c(O)c(Cl)c23)cc1`, the T/C (dose: 60.0 mg/kg/injection, schedule: Q01DX005 (ip), vehicle: Klucel (hydroxypropylcellulose) (HPC)) was 96 % of control; the T/C (dose: 120.0 mg/kg/injection, schedule: Q01DX005 (ip), vehicle: Klucel (hydroxypropylcellulose) (HPC)) is 93 % of control; the T/C (dose: 240.0 mg/kg/injection, schedule: Q01DX005 (ip), vehicle: Klucel (hydroxypropylcellulose) (HPC)) is 91 % of control.

For the molecule `CN(C)CCCn1c2ccccc2c2cnccc21`, the T/C under setting [4] was 100 % of control; the T/C (dose: 25.0 mg/kg/injection, schedule: Q04DX003 (ip), vehicle: saline) was 100 % of control; the T/C under setting [5] was 100 % of control; the T/C (dose: 50.0 mg/kg/injection, schedule: Q04DX003 (ip), vehicle: saline) was 95 % of control; the T/C under setting [6] was 109 % of control; the T/C (dose: 100.0 mg/kg/injection, schedule: Q04DX003 (ip), vehicle: saline) was 95 % of control.

For the molecule `COc1cccc2c1C(=O)c1c(O)c3c(c(O)c1C2=O)CC(O)(C(C)=O)CC3OC1CC(NCC2(O)OCC(O)C2O)C(O)C(C)O1` (stereo not drawn), the T/C runs as follows: (dose: 3.13 mg/kg/injection, schedule: Q04DX003 (ip), vehicle: water) 103 % of control; (dose: 6.25 mg/kg/injection, schedule: Q04DX003 (ip), vehicle: water) 100 % of control; (dose: 12.5 mg/kg/injection, schedule: Q04DX003 (ip), vehicle: water) 117 % of control; (dose: 25.0 mg/kg/injection, schedule: Q04DX003 (ip), vehicle: water) 112 % of control and 113 % of control; (dose: 50.0 mg/kg/injection, schedule: Q04DX003 (ip), vehicle: water) 122 % of control; (dose: 100.0 mg/kg/injection, schedule: Q04DX003 (ip), vehicle: water) 182 % of control. Further, the T/C (dose: 200.0 mg/kg/injection, schedule: Q04DX003 (ip), vehicle: water) was 108 % of control.

Regarding `ClC(Cl)(Cl)Cl`, the T/C was 103 % of control (dose: 0.37 % in 0.5 ml injection vol, schedule: Q01DX009 (ip), vehicle: water); 103 % of control (dose: 0.75 % in 0.5 ml injection vol, schedule: Q01DX009 (ip), vehicle: water); 104 % of control (dose: 1.5 % in 0.5 ml injection vol, schedule: Q01DX009 (ip), vehicle: water).

As to `S=C(NNC(=S)Nc1ccccc1)Nc1ccccc1`, the T/C under setting [4] was 102 % of control; the T/C under setting [1] was 97 % of control; the T/C under setting [5] was 109 % of control; the T/C under setting [2] was 93 % of control; the T/C under setting [6] was 100 % of control; the T/C under setting [3] is 101 % of control. Moreover, the T/C (dose: 400.0 mg/kg/injection, schedule: Q01DX009 (ip), vehicle: Klucel (hydroxypropylcellulose) (HPC)) was 104 % of control.

On to `CCN(CC)c1ccc2nc3ccc(=[N+](CC)CC)cc-3oc2c1`, for which the T/C reads like this: (dose: 7.5 mg/kg/injection, schedule: Q01DX005 (ip), vehicle: saline) 105 % of control; (dose: 15.0 mg/kg/injection, schedule: Q01DX005 (ip), vehicle: saline) 109 % of control.

With `Cc1cccc(C)c1N=Cc1ccc([N+](=O)[O-])cc1`, the T/C is, setting by setting: under setting [5], 100 % of control; under setting [6], 99 % of control; (dose: 200.0 mg/kg/injection, schedule: Q01DX009 (ip), vehicle: saline) 102 % of control.

`COCCN1CC(=O)N2Cc3ccccc3CN2C(=O)C1`: the T/C reads like this: (dose: 12.5 mg/kg/injection, schedule: Q01DX005 (ip), vehicle: saline with Tween-80) 107 % of control; (dose: 25.0 mg/kg/injection, schedule: Q01DX005 (ip), vehicle: saline with Tween-80) 105 % of control; under setting [7], 100 % of control and 101 % of control; under setting [15], 101 % of control.

In the case of `CCOC(=O)C(O)Cc1cnc2ccccc2n1` (stereo not drawn), the T/C is 108 % of control under setting [7], 108 % of control under setting [16] and 100 % of control under setting [15].

As for `CC(C)(C)SC(=S)SCC(=O)c1cc2ccccc2o1`, the T/C under setting [7] was 100 % of control, the T/C under setting [16] is 93 % of control and the T/C under setting [15] is 93 % of control.

Take `O=CNNC(=S)Nc1ccccc1`: the T/C is 113 % of control (dose: 50.0 mg/kg/injection, schedule: Q01DX009 (ip), vehicle: saline with Tween-80); 109 % of control (dose: 100.0 mg/kg/injection, schedule: Q01DX009 (ip), vehicle: saline with Tween-80); 108 % of control (dose: 200.0 mg/kg/injection, schedule: Q01DX009 (ip), vehicle: saline with Tween-80).

For the molecule `Cc1nc(Nc2c(C)cccc2C)c2c(C)c(Cc3ccccc3)[nH]c2n1`, the T/C was 89 % of control under setting [9], 89 % of control under setting [10] and 104 % of control under setting [11].

As for `CN1C(NN)=NS(=O)(=O)c2ccccc21`, the T/C is, setting by setting: under setting [12], 106 % of control; under setting [13], 103 % of control; under setting [14], 106 % of control.

Take `O=[N+]([O-])c1ccc(SC(=S)N2CCCCC2)c([N+](=O)[O-])c1`: the T/C under setting [1] was 105 % of control, the T/C under setting [2] is 106 % of control and the T/C under setting [3] is 111 % of control.

For the molecule `CCOC(=O)ON(C)C(=O)OCC`, the T/C is 102 % of control under setting [7]; 102 % of control under setting [16]; 107 % of control under setting [15]; 102 % of control (dose: 400.0 mg/kg/injection, schedule: Q01DX005 (ip), vehicle: saline with Tween-80).

In the case of `Nc1nc2ccc(CO)nc2c(=O)[nH]1`, the T/C reads like this: under setting [7], 98 % of control; under setting [16], 106 % of control; under setting [15], 101 % of control.

`c1cc2c3c(c1)nc(CCCc1nc4cccc5c4n1CCC5)n3CCC2`: the T/C by setting is: (dose: 25.0 mg/kg/injection, schedule: Q04DX003 (ip), vehicle: saline with Tween-80) 95 % of control; (dose: 50.0 mg/kg/injection, schedule: Q04DX003 (ip), vehicle: saline with Tween-80) 86 % of control; (dose: 100.0 mg/kg/injection, schedule: Q04DX003 (ip), vehicle: saline with Tween-80) 90 % of control.
